{"source": "patent US20240240224A1", "about": "“FLUORESCENT D-TYPE AMINO ACID METABOLISM MARKER-BASED METHOD FOR DETECTING ANTIBACTERIAL DRUG SENSITIVITY TEST” (priority 2020, published 2024)", "key": {"S. aureus Sa22 [1]": {"system": "S. aureus Sa22", "assay": "BMD susceptibility test", "format": "cell-based, Staphylococcus aureus", "settings": "unit assumed"}, "S. aureus ATCC29213 [2]": {"system": "S. aureus ATCC29213", "assay": "FaAST (FDAA metabolic labeling method)", "format": "cell-based, Staphylococcus aureus", "settings": "unit assumed", "experimental": "(§1) Take the colony to be tested that has been cultured overnight on the plate and fully mix it in normal saline to make a uniform bacterial solution. Dilute it into Cation-Adjusted Mueller Hinton Broth (CAMHB) culture medium to make a bacterial solution with OD600=0.05. • 2. Add 45 μl antibiotic solutions of different concentrations to 96-well plates (see Table 1 for antibiotic concentration gradient settings). • 3. Add 50 μl of the bacterial solution prepared in step 1 to the 96-well plate and mix well. • 4. Add 5 μl of 10 mM Cy5-DAA probe (final concentration 0.15 mM, see FIG. 1 for its structure) into each well, mix well, and cultivate in dark for 2 hours. • 5. Add 200 μl After PBS solution is diluted, the fluorescence intensity of each sample is detected by flow cytometry. The flow detection results are shown in FIG. 4-5, showing the curve of the change of antibiotic concentration gradient and fluorescence intensity. The MIC (minimum inhibitory concentration) can be obtained by referring to this curve.\n(§2) Bacteria with antibiotic resistance are shown in bold in the following table."}, "S. aureus Sa22 [3]": {"system": "S. aureus Sa22", "assay": "FaAST (FDAA metabolic labeling method)", "format": "cell-based, Staphylococcus aureus", "settings": "unit assumed", "experimental": "as §1, §2"}, "S. aureus Sa23 [4]": {"system": "S. aureus Sa23", "assay": "FaAST (FDAA metabolic labeling method)", "format": "cell-based, Staphylococcus aureus", "settings": "unit assumed", "experimental": "as §1, §2"}, "S. aureus Sa23 [5]": {"system": "S. aureus Sa23", "assay": "BMD susceptibility test", "format": "cell-based, Staphylococcus aureus", "settings": "unit assumed"}, "S. aureus ATCC29213 [6]": {"system": "S. aureus ATCC29213", "assay": "BMD susceptibility test", "format": "cell-based, Staphylococcus aureus", "settings": "unit assumed"}, "E. faecium Ef26 [7]": {"system": "E. faecium Ef26", "assay": "BMD susceptibility test", "format": "cell-based, Enterococcus faecium", "settings": "unit assumed"}, "E. faecium Ef26 [8]": {"system": "E. faecium Ef26", "assay": "FaAST (FDAA metabolic labeling method)", "format": "cell-based, Enterococcus faecium", "settings": "unit assumed", "experimental": "as §1, §2"}, "E. faecium Ef28 [9]": {"system": "E. faecium Ef28", "assay": "BMD susceptibility test", "format": "cell-based, Enterococcus faecium", "settings": "unit assumed"}, "E. faecium Ef28 [10]": {"system": "E. faecium Ef28", "assay": "FaAST (FDAA metabolic labeling method)", "format": "cell-based, Enterococcus faecium", "settings": "unit assumed", "experimental": "as §1, with “The flow detection results are shown in FIG. 4-5, showing the curve of the change of antibiotic concentration gradient and fluorescence intensity.” left out"}, "E. faecalis ATCC29212 [11]": {"system": "E. faecalis ATCC29212", "assay": "BMD susceptibility test", "format": "cell-based, Enterococcus faecalis", "settings": "unit assumed"}, "E. faecalis ATCC29212 [12]": {"system": "E. faecalis ATCC29212", "assay": "FaAST (FDAA metabolic labeling method)", "format": "cell-based, Enterococcus faecalis", "settings": "unit assumed", "experimental": "as §1, §2"}, "[13]": {"system": "alveolar lavage fluid sample 0130, A. baumannii", "assay": "BMD susceptibility test of patient alveolar lavage fluid", "format": "cell-based, Acinetobacter baumannii", "settings": "unit assumed", "description": "(§3) The results of antimicrobial susceptibility test of alveolar lavage fluid of seven patients using FDAA and BMD methods are shown in the following table. The drug-resistant bacteria are shown in bold."}, "[14]": {"system": "alveolar lavage fluid sample 0206, A. baumannii", "assay": "BMD susceptibility test of patient alveolar lavage fluid", "format": "cell-based, Acinetobacter baumannii", "settings": "unit assumed", "description": "as §3"}, "[15]": {"system": "alveolar lavage fluid sample 0219, A. baumannii", "assay": "BMD susceptibility test of patient alveolar lavage fluid", "format": "cell-based, Acinetobacter baumannii", "settings": "unit assumed", "description": "as §3"}, "[16]": {"system": "alveolar lavage fluid sample 0130, A. baumannii", "assay": "FaAST (FDAA) susceptibility test of patient alveolar lavage fluid", "format": "cell-based, Acinetobacter baumannii", "settings": "unit assumed", "experimental": "(§4) With reference to the flow chart of the rapid detection method of antimicrobial susceptibility test based on FDAA metabolic markers shown in FIG. 3, FDAA is used for the detection of antimicrobial susceptibility test of alveolar lavage fluid. The specific experimental steps are as follows: • 1. Mix bronchoalveolar lavage fluid (BALF, 10 ml) of patients with hospital acquired pneumonia with cation regulated broth medium (CAMHB, 10 ml) of twice the concentration to prepare the bacterial fluid to be tested. • 2. Add 45 μl antibiotic solutions of different concentrations to the 96-well plate separately (see Table 1 for antibiotic concentration gradient settings). • 3. Add 50 μl of the bacterial solution prepared in step 1 to the 96-well plate and mix well. • 4. Add 5 μl of 10 mM Cy5-DAA probe (final concentration 0.15 mM, see FIG. 1 for its structure) into each well, mix well, and then cultivate in dark for 2 hours. • 5. Add 200 μl PBS solution for dilution, and then use flow cytometry to detect the fluorescence intensity of each sample.\nas §3"}, "[17]": {"system": "alveolar lavage fluid sample 0204, A. baumannii", "assay": "FaAST (FDAA) susceptibility test of patient alveolar lavage fluid", "format": "cell-based, Acinetobacter baumannii", "settings": "unit assumed", "experimental": "as §4, §3"}, "[18]": {"system": "alveolar lavage fluid sample 0206, A. baumannii", "assay": "FaAST (FDAA) susceptibility test of patient alveolar lavage fluid", "format": "cell-based, Acinetobacter baumannii", "settings": "unit assumed", "experimental": "as §4, §3"}, "[19]": {"system": "alveolar lavage fluid sample 0219, A. baumannii", "assay": "FaAST (FDAA) susceptibility test of patient alveolar lavage fluid", "format": "cell-based, Acinetobacter baumannii", "settings": "unit assumed", "experimental": "as §4, §3"}, "[20]": {"system": "alveolar lavage fluid sample 0203, K. pneumoniae", "assay": "BMD susceptibility test of patient alveolar lavage fluid", "format": "cell-based, Klebsiella pneumoniae", "settings": "unit assumed", "description": "as §3"}, "[21]": {"system": "alveolar lavage fluid sample 0226, K. pneumoniae", "assay": "BMD susceptibility test of patient alveolar lavage fluid", "format": "cell-based, Klebsiella pneumoniae", "settings": "unit assumed", "description": "as §3"}, "[22]": {"system": "alveolar lavage fluid sample 0203, K. pneumoniae", "assay": "FaAST (FDAA) susceptibility test of patient alveolar lavage fluid", "format": "cell-based, Klebsiella pneumoniae", "settings": "unit assumed", "experimental": "as §4, §3"}, "[23]": {"system": "alveolar lavage fluid sample 0226, K. pneumoniae", "assay": "FaAST (FDAA) susceptibility test of patient alveolar lavage fluid", "format": "cell-based, Klebsiella pneumoniae", "settings": "unit assumed", "experimental": "as §4, §3"}, "[24]": {"system": "Staphylococcus aureus SA31", "assay": "FaAST with DAA-Tetra probe", "format": "cell-based", "settings": "unit assumed", "experimental": "The specific experimental steps are as follows: • 1. The tested colonies cultured overnight on the plate were picked and mixed thoroughly in 2× Cation-Adjusted Mueller Hinton Broth medium (2×CAMHB) to make bacterial suspension with turbidity of OD600=0.1. • 2. […] Add 50 μL of the bacterial solution prepared in step 1 (the final concentration of the bacterial solution is OD600=0.05) to the 96-well plate, and add 5 μL of 3 mM DAA-Tetra probe (the final concentration is 0.15 mM), mix well, and incubate in the dark at 37° C. 120 rpm for 2 hours. • 4. After culture, dilute the mixed bacterial solution 10 times with PBS solution, and detect the fluorescence intensity of each sample with flow cytometry. The flow detection result is shown in FIG. 14-19, and the arrow is for the MIC value. The minimum inhibitory concentration of antibiotics was obtained according to the fluorescence signal intensity of flow detection, and the statistical results are shown in Table 6."}, "[25]": {"system": "Staphylococcus aureus SA31", "assay": "VITEK drug sensitivity test", "format": "cell-based", "settings": "unit assumed"}, "[26]": {"system": "Staphylococcus aureus SA22", "assay": "FaAST with DAA-Cy5-2 probe", "format": "cell-based", "settings": "unit assumed", "experimental": "as §4\nThe specific steps are the same as in Example 5. […] The minimum inhibitory concentration of antibiotics was obtained according to the fluorescence signal intensity of flow detection, and the statistical results are shown in Table 7."}, "[27]": {"system": "Staphylococcus aureus SA22", "assay": "VITEK drug sensitivity test", "format": "cell-based", "settings": "unit assumed"}, "S. aureus ATCC29213 [28]": {"system": "S. aureus ATCC29213", "settings": "cited from earlier work"}, "E. faecalis ATCC29212 [29]": {"system": "E. faecalis ATCC29212", "settings": "cited from earlier work"}}, "data": [{"smiles": "CC(=O)NC[C@H]1CN(c2ccc(N3CCOCC3)c(F)c2)C(=O)O1", "note": "[Linezolid, linezolid]", "values": [{"measurement": "BMD (MIC)", "setting": "S. aureus Sa22 [1]", "result": 2, "unit": "µg/mL"}, {"measurement": "FaAST (MIC)", "setting": "S. aureus ATCC29213 [2]", "result": 2, "unit": "µg/mL"}, {"measurement": "FaAST (MIC)", "setting": "S. aureus Sa22 [3]", "result": 1, "unit": "µg/mL"}, {"measurement": "FaAST (MIC)", "setting": "S. aureus Sa23 [4]", "result": 8, "unit": "µg/mL"}, {"measurement": "BMD (MIC)", "setting": "S. aureus Sa23 [5]", "result": 8, "unit": "µg/mL"}, {"measurement": "BMD (MIC)", "setting": "S. aureus ATCC29213 [6]", "result": 2, "unit": "µg/mL"}, {"measurement": "BMD (MIC)", "setting": "E. faecium Ef26 [7]", "result": 2, "unit": "µg/mL"}, {"measurement": "FaAST (MIC)", "setting": "E. faecium Ef26 [8]", "result": 2, "unit": "µg/mL"}, {"measurement": "BMD (MIC)", "setting": "E. faecium Ef28 [9]", "result": 2, "unit": "µg/mL"}, {"measurement": "FaAST (MIC)", "setting": "E. faecium Ef28 [10]", "result": 2, "unit": "µg/mL"}, {"measurement": "BMD (MIC)", "setting": "E. faecalis ATCC29212 [11]", "result": 1, "unit": "µg/mL"}, {"measurement": "FaAST (MIC)", "setting": "E. faecalis ATCC29212 [12]", "result": 2, "unit": "µg/mL"}, {"measurement": "BMD (MIC)", "setting": "[13]", "result": 64, "unit": "µg/mL"}, {"measurement": "BMD (MIC)", "setting": "[14]", "result": 128, "unit": "µg/mL"}, {"measurement": "BMD (MIC)", "setting": "[15]", "result": 32, "unit": "µg/mL"}, {"measurement": "FaAST (MIC)", "setting": "[16]", "result": 64, "unit": "µg/mL"}, {"measurement": "FaAST (MIC)", "setting": "[17]", "result": 64, "unit": "µg/mL"}, {"measurement": "FaAST (MIC)", "setting": "[18]", "result": 64, "unit": "µg/mL"}, {"measurement": "FaAST (MIC)", "setting": "[19]", "result": 16, "unit": "µg/mL"}, {"measurement": "BMD (MIC)", "setting": "[20]", "result": 64, "unit": "µg/mL"}, {"measurement": "BMD (MIC)", "setting": "[21]", "result": 64, "unit": "µg/mL"}, {"measurement": "FaAST (MIC)", "setting": "[22]", "result": 16, "unit": "µg/mL"}, {"measurement": "FaAST (MIC)", "setting": "[23]", "result": 16, "unit": "µg/mL"}, {"measurement": "MIC, FaAST", "setting": "[24]", "result": 1, "unit": "µg/mL"}, {"measurement": "MIC, VITEK", "setting": "[25]", "result": 1, "unit": "µg/mL"}, {"measurement": "MIC, FaAST", "setting": "[26]", "result": 0.5, "unit": "µg/mL"}, {"measurement": "MIC, VITEK", "setting": "[27]", "result": 1, "unit": "µg/mL"}, {"measurement": "CLSI QC range", "setting": "S. aureus ATCC29213 [28]", "result": "1-4"}, {"measurement": "CLSI QC range", "setting": "E. faecalis ATCC29212 [29]", "result": "1-4"}]}]}
